Assay type in all cases: functional
Assay [1] has as its system Fusarium graminearum. As to the kind of experiment: Antifungal activity against Fusarium graminearum by microbroth dilution assay. (In broth dilution the organism is exposed to a series of concentrations in liquid medium.)
The subject of another assay is Aspergillus flavus. Put plainly: Antifungal activity against Aspergillus flavus after 12 to 18 hrs.
The test system of assay [2] is Fusarium graminearum. Put plainly: Antifungal activity against Fusarium graminearum after 12 to 18 hrs.
The subject of the next assay is Escherichia coli. As to the kind of experiment: Antibacterial activity against Escherichia coli ATCC 25922 after 12 to 18 hrs.
The test system of another assay is Staphylococcus aureus. Put plainly: Antibacterial activity against Staphylococcus aureus ATCC 25923 after 12 to 18 hrs.

Values after ≈ are worked out from the molar mass of the structure shown. A value given as a limit tells only on which side of the number the result lay.

For the compound `CCCCCCCCO[C@H]1[C@@H](O[C@@H]2[C@@H](O)[C@H](O[C@H]3O[C@H](CN)[C@@H](O)[C@H](O)[C@H]3N)[C@@H](N)C[C@H]2N)O[C@H](CO)[C@@H](O)[C@@H]1O`, it took 20 µg/mL (≈ 33.5 µM) to inhibit growth in the assay on Fusarium graminearum [1] (MIC).
Still for that read-out and setting: next, `CCCCCCCCO[C@@H]1[C@@H](O)[C@@H](O[C@@H]2[C@@H](O)[C@H](O[C@H]3O[C@H](CN)[C@@H](O)[C@H](O)[C@H]3N)[C@@H](N)C[C@H]2N)O[C@H](CO)[C@H]1O`: 62.5 µg/mL (≈ 105 µM).
Same read-out and setting: next, `CCCCCCCCO[C@H]1[C@H](O)[C@@H](N)[C@@H](O[C@H]2[C@H](O)[C@@H](O[C@H]3O[C@H](CO)[C@@H](O)[C@H](O)[C@H]3O)[C@H](N)C[C@@H]2N)O[C@@H]1CN`: over 500 µg/mL.
On to `CCCCO[C@H]1[C@H](N)[C@@H](O)[C@@H](O[C@@H]2[C@@H](O)[C@H](O[C@H]3O[C@H](CN)[C@@H](O)[C@H](O)[C@H]3O)[C@@H](N)C[C@H]2N)O[C@@H]1CO`, for which the MIC in the assay with Aspergillus flavus is over 500 µg/mL; against Fusarium graminearum [2] it was at least 500 µg/mL; with Escherichia coli, at least 250 µg/mL; in the assay on Staphylococcus aureus, 125 µg/mL (≈ 231 µM).
Taken in the same sequence, the figures for `CCCCCCCOC[C@H]1O[C@H](O[C@@H]2[C@@H](O)[C@H](O[C@H]3O[C@H](CN)[C@@H](O)[C@H](O)[C@H]3O)[C@@H](N)C[C@H]2N)[C@H](O)[C@@H](N)[C@@H]1OCCCCCCC` were 500 µg/mL (≈ 734 µM), 15.6 µg/mL (≈ 22.9 µM), 125 µg/mL (≈ 184 µM) and 125 µg/mL (≈ 184 µM).
In the case of `CCCCCCCCO[C@@H]1[C@@H](O[C@H]2O[C@H](CO)[C@@H](O)[C@H](O)[C@H]2O)[C@H](N)C[C@H](N)[C@H]1O[C@H]1O[C@H](CN)[C@@H](O)[C@H](O)[C@H]1N`, in the assay with Fusarium graminearum [1], the MIC is over 500 µg/mL.
As to `CCCCCCCCOC[C@H]1O[C@H](O[C@@H]2[C@@H](O)[C@H](O[C@H]3O[C@H](CN)[C@@H](O)[C@H](O)[C@H]3O)[C@@H](N)C[C@H]2N)[C@H](O)[C@@H](N)[C@@H]1OCCCCCCCC`, the MIC was over 500 µg/mL against Aspergillus flavus, 31.3 µg/mL (≈ 44.2 µM) against Fusarium graminearum [2], at least 250 µg/mL in the assay on Escherichia coli and at least 250 µg/mL against Staphylococcus aureus.
Consider `CCCCOC[C@H]1O[C@H](O[C@@H]2[C@@H](O)[C@H](O[C@H]3O[C@H](CN)[C@@H](O)[C@H](O)[C@H]3O)[C@@H](N)C[C@H]2N)[C@H](O)[C@@H](N)[C@@H]1OCCCC`, for which the MIC in the assay with Aspergillus flavus was over 500 µg/mL; against Fusarium graminearum [2] it was 125 µg/mL (≈ 209 µM); in the assay with Escherichia coli it was at least 250 µg/mL; against Staphylococcus aureus, at least 250 µg/mL.
Regarding `CCCCCCO[C@H]1[C@H](N)[C@@H](O)[C@@H](O[C@@H]2[C@@H](O)[C@H](O[C@H]3O[C@H](CN)[C@@H](O)[C@H](O)[C@H]3O)[C@@H](N)C[C@H]2N)O[C@@H]1CO`, the minimum inhibitory concentration (MIC) against Aspergillus flavus was over 500 µg/mL; in the assay with Fusarium graminearum [2], 31.3 µg/mL (≈ 55 µM); with Escherichia coli, at least 250 µg/mL; with Staphylococcus aureus, 64 µg/mL (≈ 113 µM).
On the same counts, the results for `CCCCCCOC[C@H]1O[C@H](O[C@@H]2[C@@H](O)[C@H](O[C@H]3O[C@H](CN)[C@@H](O)[C@H](O)[C@H]3O)[C@@H](N)C[C@H]2N)[C@H](O)[C@@H](N)[C@@H]1OCCCCCC` are 500 µg/mL (≈ 766 µM), 15.6 µg/mL (≈ 23.9 µM), at least 250 µg/mL and 64 µg/mL (≈ 98 µM).

A word on the MIC: it is the least concentration at which growth counts as inhibited.

(Values after ChEMBL document CHEMBL4257529, “Antifungal amphiphilic kanamycins: new life for an old drug” (Medchemcomm, 2018).)
